Values belong to the compound of their own block, whether it stands above or below them.
Key:
[1] = biological target: T1, transthyretin fragment peptide (TTR81-127) (Homo sapiens, UniProt P02766); assay: ThT fluorescence assay of TTR81-127 fibril formation; assay type: biochemical; conditions: for TTR81-127 fibril formation (ThT): compound 100 μM, molar ratio 1:10; for remaining activity at 100 µM: compounds at 100 μM, TTR81-127 10 μM, control 0.25% DMSO, read-out: ThT TTR81-127 (%), maximum thioflavin T (ThT) intensity in percentage
T1 construct: TTR fragment 81-127 was obtained from AnaSpec; purchased AnaSpec; host or cells: synthetic peptide
Method: (§1) Thioflavin-T (ThT) fluorescence assays. Thioflavin-T (ThT) fluorescence assays were used to monitor fibril formation of recombinant Ap (fragments 1-40 and 1-42), recombinant α-syn, recombinant tau isoform 2N4R, synthetic IAPP, and synthetic TTR peptides treated with BTA and its derivatives. The IAPP ThT assay was performed in 10 mM PBS (pH 7.4) at a final concentration of 10 μM for both IAPP and ThT as published previously. Aβ fragments 1-40 and 1-42 were tested at 7 μM in 10 mM of PBS using ThT at a final concentration of 20 μM. Kinetics of α-syn fibrillization were performed as published previously.^36-37 TTR fragment kinetics of fibril formation were assessed at 10 μM in 100 mM sodium acetate buffer supplemented with 100 mM KCl and 1 mM ethylenediaminetetraacetic acid (EDTA) (pH 4) with 20 μM ThT. The fluorescence emission experiments were performed with the excitation and emission wavelengths set at 440 and 485 nm, respectively, with a Synergy HT multi-mode microplate reader (BioTek, Winooski, VT). Samples were measured in three replicates, and the experiments were repeated three times using at least two different stock solutions. For each time point, arbitrary units of fluorescence were calculated from the mean values normalized against the maximum value in each completed assay. The lag time for each condition was calculated as previously described. All results contained in histograms were presented as mean±SEM. Data were analyzed by the one-way analysis of variance with Dunnett's multiple comparisons between controls and compounds. Differences were considered statistically significant at p<0.05.

α-syn [2] = biological target: T2, α-syn (Homo sapiens, UniProt P37840); assay: Photo-induced cross-linking of unmodified proteins (PICUP), α-syn oligomerization; assay type: biochemical; conditions: compound 50 μM, molar ratio 1:5 (protein:compound)
T2 construct: purchased rPeptide
Method: (§2) Photo-induced Cross-linking of Unmodified Proteins (PICUP) Assay. To induce oligomerization by cross-linking, α-syn (from Rpeptide, LLC) and tau isoform 2N4R were diluted in 10 mM phosphate buffer (pH 7.4) to reach a final concentration of 10 μM. Different compounds were added to the protein solution at a final concentration of 50 μM, resulting in a molar ratio of 1:5. To confirm the gradual effect of the compounds on the inhibition of α-syn oligomerization, the compounds were tested at final concentrations of 3.125, 6.25, 12.5, 25, and 50 μM. The controls consisted of samples without light exposition, without Ru(bpy) or ammonium persulfate, and without compound (i.e., 0.125% DMSO). The cross-linking reaction was initiated by the addition of 2 μL of Ru(bpy) (300 μM final concentration) and 2 μL ammonium persulfate (6 mM final concentration). Samples were irradiated immediately. Light exposure was of a one-second duration for α-syn and a three-second duration for tau isoform 2N4R, with a 53 W (120 V) incandescent lamp installed in a homemade dark-box. Each tube contained a final volume of 20 μL. After irradiation, 8.3 μL of Laemmli loading buffer containing 15% β-mercaptoethanol were immediately added to the solution, followed by incubation at 95° C. for 10 minutes. The cross-linked samples were separated on a 16% SDS-PAGE gel and visualized by Coomassie blue staining.

tau isoform 2N4R [3] = biological target: T3, tau isoform 2N4R (Homo sapiens, UniProt P10636); assay: PICUP, tau isoform 2N4R oligomerization; assay type: biochemical; conditions: compound 50 μM
T3 construct: made in house; host or cells: E. coli BL21(DE3)
Method: (§3) The bacterial expression plasmid consisting of the vector pRK172 carrying a cDNA encoding the human Tau 2N4R isoform was obtained from Dr. David Eliezer (Weill Cornell Medicine, New York, NJ). For protein expression, E. coli BL21(DE3) cells were transformed with the plasmid and grown in LB media supplemented with ampicillin (100 μg/mL). Protein over-expression was induced by the addition of 1 mM IPTG for 4 hours at 37° C., and cells were pelleted by centrifugation at 6,000 g for 15 minutes at 4° C. The cells were resuspended in lysis buffer (20 mM MES, 400 mM NaCl, 0.2 mM MgCl2, 1 mM EGTA, protease inhibitor cocktail (P8340, Sigma Aldrich), 0.25 mg/mL lysozyme, and 1 μg/mL DNase 1, pH 6.8) and lysed by a French press cell disruptor at 4° C., after which the lysate was boiled for 20 minutes. Denatured proteins were pelleted by centrifugation at 30,000 g for 30 minutes at 4° C., and the supernatant was dialyzed overnight against cation exchange buffer (20 mM MES, 50 mM NaCl, 1 mM MgCl2, 1 mM EGTA, 2 mM DTT, 0.1 mM PMSF, pH 6.8). The dialysate was loaded onto a HiPrep SP HP column, and proteins were eluted with a linear gradient ranging from 50 mM to 1 M NaCl. Fractions containing tau isoform 2N4R were pooled, and the resulting protein solution was dialyzed against PBS (pH 7.4) and stored at −80° C.
as §2

Aβ1-42 = biological target: T4, Aβ1-42 (Homo sapiens, UniProt P05067); assay: ThT fluorescence assay of Aβ1-42 fibril formation; assay type: biochemical; conditions: screen on prone-to-aggregate proteins (FIG. 2A, FIG. 4A); Aβ 7 μM
T4 construct: α-syn, Aβ1-40, Aβ1-42 were procured from rPeptide; purchased rPeptide
Method: as §1

TTR101-125 = biological target: T5, TTR101-125 (Homo sapiens, UniProt P02766); assay: ThT fluorescence assay of TTR101-125 fibril formation; assay type: biochemical
T5 construct: TTR fragments 1-25, 26-50, 51-75, 76-100, 81-105, 101-125, and 101-125 were obtained from GenScript; purchased GenScript; host or cells: synthetic peptide
Method: as §1

α-syn [4] = biological target: T2, α-syn; assay: Transmission electron microscopy (TEM) of α-syn fibrils; assay type: biochemical; conditions: compound 100 μM
Method: (§4) Transmission electron microscopy (TEM). After performing analysis with ThT fluorescence assay, TEM was utilized to detect fibril formation. A volume of 10 μL was applied to a 400-mesh Formvar-carbon-coated copper grid (Electron Microscopy Sciences, Hatfield, PA). The grids were incubated for 1 minute and washed three times with distilled water. They were carefully air-dried and incubated for 1 minute in a fresh solution of 1% uranyl acetate. Samples were air-dried and observed using a transmission microscope. Visualization of the grids was performed with TEM (JEOL 1400 Flash, Japan). Acquisition of pictures was performed with settings of accelerating voltage of 100 kV and magnification of 25 k and/or 40 k.

TTR81-127 = biological target: T6, TTR81-127 (Homo sapiens, UniProt P02766); assay: TEM of TTR81-127 fibrils; assay type: biochemical; conditions: compound 100 μM, TTR81-127 10 μM, sodium acetate buffer pH 4
T6 construct: TTR fragment 81-127 was obtained from AnaSpec; purchased AnaSpec; host or cells: synthetic peptide

IAPP = biological target: T7, IAPP (Homo sapiens, UniProt P10997); assay: TEM of IAPP fibrils; assay type: biochemical; conditions: compound 100 μM, IAPP 10 μM, PBS
T7 construct: Human islet amyloid polypeptide (IAPP) was procured from AnaSpec; purchased AnaSpec; host or cells: synthetic peptide
T7 sequence (P10997 34-70 limits assumed): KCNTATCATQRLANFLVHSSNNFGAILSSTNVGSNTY
Method: as §4

[5] = system: M17D neuroblastoma cells that express inclusion-prone αS-3K::YFP; assay: α-Syn inclusion-forming neuroblastoma cell experiment; assay type: cell-based; conditions: 40 μM; t=96 hours
Method: α-Syn (or αS) inclusion-forming neuroblastoma cell experiment. Dox-inducible neuroblastoma cells M17D-TR/αS-3K::YFP have been used previously. 96-well plates were used with a cellular density of 30,000 cells per well. Compounds were added […], and αS-3K::YFP transgene expression was induced […]. Induction was done by adding 1 μg per mL (final concentration) dox to culture media. Cells were incubated in the Incucyte Zoom 2000 platform (Essen Biosciences), and images (green, bright field) were taken continuously. Endpoint analysis of inclusion formation or growth was performed 48 hours after induction (96 hours after plating). The Incucyte processing definition ‘Inclusions’ was created as follows: Parameters, Fixed Threshold, Threshold (GCU) 50; Edge Split On, Edge Sensitivity 100; Cleanup, Hole Fill (μm^2): 10, Adjust Size (pixels): 0; Filters, Area (μm^2): max 50, Mean Intensity: min 60, Integrated Intensity: min 2000. Cell confluence was measured by the processing definition ‘Cells’: Parameters, Segmentation Adjustment 0.7; Cleanup, all parameters set to 0; Filters, Area (μm^2): min 345.00. As described previously for the evaluation of protein expression by SDS-PAGE and Western Blotting in the LiCor system, αS-specific monoclonal antibody 4B12 (Thermofisher, Waltham, MA; 1:1000) and a polyclonal antibody to GAPDH (Sigma-Aldrich, St. Louis, MO, G9545; 1:5000) were used.

α-synuclein (α-syn) = biological target: T8, α-synuclein (α-syn) (Homo sapiens, UniProt P37840); assay: Thioflavin-T (ThT) fluorescence assay of α-syn fibril formation; assay type: biochemical; conditions: compounds at 100 μM, α-syn 6.25 μM, control 0.25% DMSO; for remaining activity at 100 µM: read-out: ThT a-Syn (%), maximum thioflavin T (ThT) intensity in percentage
T8 construct: purchased rPeptide
Method: as §1
(§5) Compounds with the highest anti-fibrillary activity were tested at 3.125, 6.25, 12.5, 25, 50, and 100 μM to obtain dose-response curves with prepared α-syn and 2N4R tau at 6.25 μM and 6 μM, respectively. Compounds were tested with α-syn using a previously published procedure. Concerning the tau (isoform 2N4R) kinetics of fibril formation, measurements of ThT fluorescence were performed with a solution of the protein diluted to a final concentration of 6 μM in PBS (pH 7.4) supplemented with 1.5 μM heparin, 20 μM ThT, 2.5 mM DTT, and 100 μM compound. Aliquots of the diluted protein solution (100 μL each) were pipetted into the wells of a 96-well plate, and a Teflon ball was added to each well. The plate was incubated at 37° C. with constant shaking at 1,000 rpm in a Tecan Spark plate reader. ThT fluorescence was measured every 15 minutes with excitation and emission wavelengths of 440 nm and 480 nm, and the data were plotted using GraphPad Prism.

tau isoform 2N4R [6] = biological target: T3, tau isoform 2N4R; assay: ThT kinetics of tau isoform 2N4R fibril formation; assay type: biochemical; conditions: tau 6 μM, compound 100 μM
Method: as §3, §5

[7] = compound 100 μM, molar ratio 1:10

T3 sequence (P10636 1-441 isoform P10636-8): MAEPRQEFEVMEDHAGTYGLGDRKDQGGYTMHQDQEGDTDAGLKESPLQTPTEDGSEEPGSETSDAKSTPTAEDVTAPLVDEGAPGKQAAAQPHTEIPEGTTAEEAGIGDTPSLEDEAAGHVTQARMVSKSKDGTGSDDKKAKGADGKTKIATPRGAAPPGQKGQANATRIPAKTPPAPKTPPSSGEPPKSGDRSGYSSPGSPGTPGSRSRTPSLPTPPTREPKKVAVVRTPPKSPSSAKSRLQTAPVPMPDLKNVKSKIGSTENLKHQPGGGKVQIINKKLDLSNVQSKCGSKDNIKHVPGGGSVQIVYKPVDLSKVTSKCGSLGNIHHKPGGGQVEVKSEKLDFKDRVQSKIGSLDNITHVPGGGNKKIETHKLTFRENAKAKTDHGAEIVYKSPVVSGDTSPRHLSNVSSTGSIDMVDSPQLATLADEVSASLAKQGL
T4 sequence (P05067 672-713 limits assumed): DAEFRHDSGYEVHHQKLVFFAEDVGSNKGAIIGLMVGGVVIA

SMILES: Nc1ccc(-c2nc3ccccc3s2)cc1 [BTA, 4-(2-benzothiazolyl)aniline, reference compound]
TTR81-127 fibril formation (ThT) [1]: reduced fibril formation
α-syn oligomer formation (PICUP) (α-syn [2]): not successful in preventing oligomerization
tau isoform 2N4R oligomer formation (PICUP) (tau isoform 2N4R [3]): not successful in preventing oligomerization
thioflavin T fluorescence intensity, Aβ1-42 (Aβ1-42): 22.59±0.71%
TTR101-125 fibril formation (ThT) (TTR101-125; compound 25 μM, molar ratio 1:2.5): continued to reduce TTR101-125 fibrils
TTR101-125 fibril formation (ThT) (TTR101-125; [7]): reduced fibril formation
α-syn fibrils by TEM (α-syn [4]): no such branching was observed
TTR81-127 fibrils by TEM (TTR81-127): reduced fibril formation
IAPP fibrils by TEM (IAPP): no such branching was observed
cell confluence [5]: reduction in confluence
number of αS-3K::YFP inclusions [5]: did not affect the number of inclusions

SMILES: CC(=O)c1ccc(NC(=S)Nc2ccc(-c3nc4ccccc4s3)cc2)cc1 [Compound 2, 1-(4-acetylphenyl)-3-[4-(1,3-benzothiazol-2-yl)phenyl]thiourea]
TTR81-127 fibril formation (ThT) [1]: to a lesser extent, compound 2 reduced fibril formation
TTR101-125 fibril formation (ThT) (TTR101-125; compound 50 μM, molar ratio 1:5): weak in inhibiting TTR101-125 fibril formation
TTR101-125 fibril formation (ThT) (TTR101-125; [7]): to a lesser extent, compound 2 reduced fibril formation

SMILES: O=C(Cc1ccccc1)Nc1nsc2ccc([N+](=O)[O-])cc12 [Compound 8, N-(5-nitro-1,2-benzothiazol-3-yl)-2-phenylacetamide]
remaining activity at 100 µM (α-synuclein (α-syn)): > 100%
remaining activity at 100 µM [1]: 95.2 ± 1.2%

SMILES: O=C(Cc1cccs1)Nc1nsc2ccc([N+](=O)[O-])cc12 [Compound 9]
remaining activity at 100 µM (α-synuclein (α-syn)): > 100%
remaining activity at 100 µM [1]: 69 ± 0.1%

SMILES: CC(=O)Nc1nsc2ccc([N+](=O)[O-])cc12 [Compound 10, N-(5-nitro-1,2-benzothiazol-3-yl)acetamide]
ThT a-Syn (%), maximum thioflavin T (ThT) intensity in percentage (α-synuclein (α-syn)): 55.6 ± 3.2%
remaining activity at 100 µM (α-synuclein (α-syn)): 55.6 ± 3.2%
remaining activity at 100 µM [1]: 90.2 ± 2.7%
production of tau isoform 2N4R fibrils (ThT kinetic aggregation curves) (tau isoform 2N4R [6]): reduced the production of tau isoform 2N4R fibrils

SMILES: CS(=O)(=O)N(c1nsc2ccc([N+](=O)[O-])cc12)S(C)(=O)=O [Compound 12, N-methanesulfonyl-N-(5-nitro-1,2-benzothiazol-3-yl)methanesulfonamide]
remaining activity at 100 µM (α-synuclein (α-syn)): > 100%
remaining activity at 100 µM [1]: 63 ± 17.4%

Now from value to compound:

remaining activity at 100 µM (α-synuclein (α-syn)): > 100%
remaining activity at 100 µM [1]: 82.6 ± 6%
SMILES: O=[N+]([O-])c1ccc2snc(Nc3nc(Cl)nc(Cl)n3)c2c1 [Compound 6, N-(4,6-dichloro-1,3,5-triazin-2-yl)-5-nitro-1,2-benzothiazol-3-amine]

remaining activity at 100 µM (α-synuclein (α-syn)): > 100%
remaining activity at 100 µM [1]: > 100%
SMILES: O=[N+]([O-])c1ccc2snc(Nc3ncnc(Cl)n3)c2c1 [Compound 7, N-(4-chloro-1,3,5-triazin-2-yl)-5-nitro-1,2-benzothiazol-3-amine]

ThT a-Syn (%), maximum thioflavin T (ThT) intensity in percentage (α-synuclein (α-syn)): 45.3 ± 12.9%
remaining activity at 100 µM (α-synuclein (α-syn)): 45.3 ± 12.9%
remaining activity at 100 µM [1]: 59.7 ± 2.6%
SMILES: O=C(CCl)Nc1nsc2ccc([N+](=O)[O-])cc12 [Compound 11, 2-chloro-N-(5-nitro-1,2-benzothiazol-3-yl)acetamide]

Reference: patent publication US20260224538A1 (Purdue Research Foundation, priority 2023, published 2026)
